Source: patent US20180153995A1, “USE OF ANTIMICROBIAL POLYMERS FOR RE-SENSITIZATION OF MICROORGANISMS UPON EMERGENCE OF RESISTANCE TO ANTI-MICROBIAL AGENTS” (Technion Research & Development Foundation Limited, priority 2008, published 2018)
Where two headings read alike, the source gives them in different places.

How the values were obtained:
[1] = test system: E. coli 16327; assay: microbe, parasite or virus in culture; settings: for Antibiotic MIC: E. coli 16327
[2] = test system: E. coli 16329; format: cell-based, Escherichia coli
Summary of the method: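 Bacterial suspensions (100 μl) were added to 100 μl of culture medium carrying 2-fold serially diluted antibiotic together with a fraction of the polymer's MIC, or to plain medium as control. Plates were incubated 24 hours at 37° C, and proliferation was read at 620 nm against calibration standards. Starting inoculum was 10^5 bacteria per ml.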

[3] = test system: E. coli 14182; assay: Antibiotic MIC by microdilution with or without sub-MIC polymer; format: cell-based, Escherichia coli
[4] = test system: S. maltophila 748; assay: as above; format: cell-based, Stenotrophomonas maltophila
[5] = test system: E. coli K-12 efflux knockout mutant; format: cell-based, Escherichia coli; settings: E. coli AG100A (efflux−)
Summary of the method: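 Broth microdilution, inocula 10^5 bacteria/ml, 24 h at 37 °C. Growth read as OD620 against calibration standards.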

[6] = test system: E. coli K-12 resistant wild type; format: cell-based, Escherichia coli; settings: E. coli AG100 (w.t.)
[7] = polymer at ¼ of its MIC (Table 16)
[8] = polymer at ½ of its MIC (Table 16)
[9] = polymer at ⅓ of its MIC (Table 16)
[10] = the OAK at ¼ of its MIC (Table 17)
[11] = the OAK at ½ of its MIC (Table 17)
[12] = the OAK at ⅓ of its MIC (Table 17)

CC1(C)S[C@@H]2[C@H](NC(=O)Cc3ccccc3)C(=O)N2[C@H]1C(=O)O [Penicillin G, penicillin G]
Antibiotic MIC ([1]; +¼ MIC (1.6 μM) C12K(KNC12K)2NH2): >512 µg/mL | Antibiotic MIC ([1]; +½ MIC (3.12 μM) C12K(KNC12K)2NH2): >512 µg/mL | Antibiotic MIC ([1]; +⅓ MIC (2.1 μM) C12K(KNC12K)2NH2): >512 µg/mL | Antibiotic MIC ([1]; no polymer (None), Table 9): >512 µg/mL | Antibiotic MIC ([1]; no polymer (None), Table 10): >512 µg/mL | Antibiotic MIC ([1]; no polymer (None), Table 12): >512 µg/mL | MIC, Alone ([1]; E. coli U16327, antibiotic alone (Table 22)): >512 µg/mL | MIC, ¼ + MIC OAK ([1]; E. coli U16327, with C12K(KNC10K)3NH2 (SEQ ID NO: 10) at ¼ of its MIC): >512 µg/mL | MIC, ½ + MIC OAK ([1]; E. coli U16327, with C12K(KNC10K)3NH2 (SEQ ID NO: 10) at ½ of its MIC): 512 µg/mL | MIC, ⅓ + MIC OAK ([1]; E. coli U16327, with C12K(KNC10K)3NH2 (SEQ ID NO: 10) at ⅓ of its MIC): >512 µg/mL | Antibiotic MIC, None ([1]; E. coli U-16327, antibiotic alone (Table 15)): >512 µg/mL | Antibiotic MIC in presence of C12K(NC8K)7NH2 (SEQ ID NO: 4), +¼ MIC ([1]; E. coli U-16327, polymer at ¼ of its MIC): >512 µg/mL | Antibiotic MIC in presence of C12K(NC8K)7NH2 (SEQ ID NO: 4), +½ MIC ([1]; E. coli U-16327, polymer at ½ of its MIC): 512 µg/mL | Antibiotic MIC in presence of C12K(NC8K)7NH2 (SEQ ID NO: 4), +⅓ MIC ([1]; E. coli U-16327, polymer at ⅓ of its MIC): >512 µg/mL | Antibiotic MIC [2]: 256 µg/mL | Antibiotic MIC ([2]; E. coli 16329, no polymer (None), Table 10): 512 µg/mL | Antibiotic MIC ([2]; E. coli U-16329, +¼ MIC C12K(NC8K)5NH2): 256 µg/mL | Antibiotic MIC ([2]; E. coli U-16329, +½ MIC C12K(NC8K)5NH2): 256 µg/mL | Antibiotic MIC ([2]; E. coli U-16329, +⅓ MIC C12K(NC8K)5NH2): 256 µg/mL | Antibiotic MIC, None ([2]; E. coli U-16329, antibiotic alone (Table 15)): 256 µg/mL | Antibiotic MIC ([2]; E. coli U-16329, no polymer (None), Table 14): 256 µg/mL | Antibiotic MIC in presence of C12K(NC8K)7NH2 (SEQ ID NO: 4), +¼ MIC ([2]; E. coli U-16329, polymer at ¼ of its MIC): 256 µg/mL | Antibiotic MIC in presence of C12K(NC8K)7NH2 (SEQ ID NO: 4), +½ MIC ([2]; E. coli U-16329, polymer at ½ of its MIC): 128 to 256 µg/mL | Antibiotic MIC in presence of C12K(NC8K)7NH2 (SEQ ID NO: 4), +⅓ MIC ([2]; E. coli U-16329, polymer at ⅓ of its MIC): 128 to 256 µg/mL | Antibiotic MIC ([3]; +½ MIC C12K(NC8K)5NH2): >512 µg/mL | Antibiotic MIC, None ([3]; antibiotic alone (Table 15)): >512 µg/mL | Antibiotic MIC ([3]; no polymer (None), Table 14): >512 µg/mL | Antibiotic MIC in presence of C12K(NC8K)7NH2 (SEQ ID NO: 4), +¼ MIC ([3]; polymer at ¼ of its MIC): >512 µg/mL | Antibiotic MIC in presence of C12K(NC8K)7NH2 (SEQ ID NO: 4), +½ MIC ([3]; polymer at ½ of its MIC): >512 µg/mL | Antibiotic MIC in presence of C12K(NC8K)7NH2 (SEQ ID NO: 4), +⅓ MIC ([3]; polymer at ⅓ of its MIC): >512 µg/mL | Antibiotic MIC ([4]; +¼ MIC (1.6 μM) C12K(KNC12K)3NH2): 512 µg/mL | Antibiotic MIC ([4]; +½ MIC (3.12 μM) C12K(KNC12K)3NH2): 128 µg/mL | Antibiotic MIC ([4]; +⅓ MIC (2.1 μM) C12K(KNC12K)3NH2): 256 to 512 µg/mL | Antibiotic MIC ([4]; no polymer (None), Table 13): 512 µg/mL | Antibiotic MIC, None ([5]; antibiotic alone (Table 16)): 8 µg/mL | Antibiotic MIC, None ([5]; antibiotic alone (Table 17)): 8 µg/mL | Antibiotic MIC in presence of C12K(NC8K)7NH2 (SEQ ID NO: 4), +¼ MIC [5, 7]: 8 µg/mL | Antibiotic MIC in presence of C12K(NC8K)7NH2 (SEQ ID NO: 4), +½ MIC [5, 8]: 4 µg/mL | Antibiotic MIC in presence of C12K(NC8K)7NH2 (SEQ ID NO: 4), +⅓ MIC [5, 9]: 8 µg/mL | Antibiotic MIC in presence of the OAK, +¼ MIC [5, 10]: 4 to 8 µg/mL | Antibiotic MIC in presence of the OAK, +½ MIC [5, 11]: 4 µg/mL | Antibiotic MIC in presence of the OAK, +⅓ MIC [5, 12]: 4 to 8 µg/mL | Antibiotic MIC, None ([6]; antibiotic alone (Table 16)): 32 µg/mL | Antibiotic MIC, None ([6]; antibiotic alone (Table 17)): 32 µg/mL | Antibiotic MIC in presence of C12K(NC8K)7NH2 (SEQ ID NO: 4), +¼ MIC [6, 7]: 16 to 32 µg/mL | Antibiotic MIC in presence of C12K(NC8K)7NH2 (SEQ ID NO: 4), +½ MIC [6, 8]: 8 µg/mL | Antibiotic MIC in presence of C12K(NC8K)7NH2 (SEQ ID NO: 4), +⅓ MIC [6, 9]: 8 to 16 µg/mL | Antibiotic MIC in presence of the OAK, +¼ MIC [6, 10]: 16 µg/mL | Antibiotic MIC in presence of the OAK, +½ MIC [6, 11]: 8 µg/mL | Antibiotic MIC in presence of the OAK, +⅓ MIC [6, 12]: 16 µg/mL
